Measurements from patent US12115157B2, “3-phenoxyazetidin-1-yl-heteroaryl pyrrolidine derivatives and the use thereof as medicament” (Boehringer Ingelheim International GmbH, priority 2021, dated 2024).

Assay: In vitro metabolite profiling in human liver microsomes in absence of NADPH
Type: in vitro ADME
Set-up: key: yes: Metabolite is formed in presence of human liver microsomes in the absence of cofactors as indication of a non-CYP-dependent pathway; Metabolite is not detected in microsomal incubations
Method: In vitro metabolite profiling to evaluate the involvement of non-CYP-enzyme-mediated metabolic pathways such as hydrolysis in addition to CYP-mediated pathways is based on the semiquantitative analysis of the formation of prototypic metabolites in incubations with liver microsomes (with and without beta-nicotinamide adenine dinucleotide phosphate, NADPH), primary human hepatocytes (with and without the pan-CYP inhibitor proadifen) and recombinant CYP enzymes.
The involvement of hydrolases, such as carboxylesterases or arylacetamide deacetylase, is assumed if the metabolite resulting from amide hydrolysis of a compound of the present invention of general formula (I) wherein R^6 is an acetyl-group, i.e. the deacetylated compound thereof, is not formed in presence of the relevant drug-metabolizing human recombinant CYP enzymes but is formed in human liver microsomes in the absence of NADPH. Hydrolases are highly abundant in liver microsomes; however, in contrast to CYP-related metabolic processes, the catalytic activity of hydrolases is independent of NADPH. As such, the deacetylated metabolite would be formed in incubations of human liver microsomes lacking NADPH.
A phenotyping assay was performed to identify the CYP enzymes responsible for metabolic conversion of the compound. The metabolic degradation of the test compound and the assessment of formation of metabolites was performed using Supersomes (human CYP expressed in baculovirus infected insect cells) and human liver microsomes, respectively. Compounds were tested specifically for their conversion by CYP isoenzymes 1A1, 1A2, 2B6, 2C8, 2C9, 2C19, 2D6, 3A4 and 3A5. […]
Following a short preincubation period for 15 min at 37° C., the reaction was initiated by addition of NADPH (reduced form, 1 mM). […] Samples were analyzed for formation of putative metabolites by means of by liquid chromatography-high resolution mass spectrometry.

Row | Structure (SMILES) | Formation in human liver microsomal incubations in absence of NADPH (secondary metabolite m443 (of m429)) | Formation in human liver microsomal incubations in absence of NADPH (secondary metabolite m405 (of m411)) | Formation in human liver microsomal incubations in absence of NADPH (secondary metabolite m425 (of m411))
1 | CC(=O)N1C[C@H](NC(=O)c2nccnc2N2CC(Oc3cc(F)c(F)c(F)c3)C2)C(F)(F)C1 [Example 11b] | no^6 | – | –
2 | CC(=O)N1C[C@H](NC(=O)c2nccnc2N2CC(Oc3cc(F)cc(F)c3)C2)C(F)(F)C1 [Example 10a] | – | no^5 | no^5
